US5340800A, “Peptide medicaments for the treatment of disease” (priority 1992, dated 1994)
Where two headings read alike, the source gives them in different places. No end group written: not given here.

System: polymorphonuclear leukocyte adhesion to TNF activated endothelial cells
Format: cell-based, human
Details: for Percent Change of Adhesion: donor 140 (second line), lower part of Table 4; for Average % Change of PMN Adhesion to TNF Activated ECs: average over PMN donors (# donors in parentheses)
Experimental: Leukocyte adherence can be measured using several assays known in the art, and the preferred assay is described by Charo, et al., 1985, Blood, 65:473. Briefly, the assay consists of labelling leukocytes with an appropriate label, incubating them with endothelial cells and determining the number of leukocytes that adhere. Preferably the cells are labelled with a gamma ray emitting isotope and the preferred labels are ^111 Indium-oxide or ^51 chromium.
Leukocytes may be isolated from human donors using standard techniques. This generally consists of isolating blood in a physiologically balanced salt solution containing an appropriate anticoagulant, and separating the leukocytes by an appropriate separation step, preferably on Ficoll-Hypaquegradients. Contaminating erythrocytes can be removed by hypotonic lysis. The resulting leukocytes are suspended in a physiologically buffered solution, pH 7.4. The preferred physiological buffered solution is Hank's balanced salt solution that is calcium and magnesium free.
The isolated leukocytes can then be labelled by incubating them for an appropriate time, generally 15 minutes, with the desired radioisotope at a predetermined concentration. The radiolabelled cells are washed to remove unincorporated label, and then suspended in an appropriate solution to perform the adhesion assay described below.
Endothelial cells can be prepared from a number of sources and by several techniques known in the art. Preferably they are obtained from human umbilical veins using the procedure of Charo et al., above. Generally, endothelial cells are isolated by enzymatic digestion of the umbilical veins using, preferably, collagenase as described by Jaffe, E. A., et al., 1973, J. of Clin. Invest, 52:2745. The cells are grown on an appropriate tissue culture substratum, preferably gelatine-coated surfaces.
The endothelial cells may be grown in a variety of tissue culture media containing appropriate supplements such as an appropriate concentration of fetal calf serum, and other supplements/additives routinely utilized by those skilled in this art that are recognized as being favorable for endothelial cells. The endothelial cells may be passaged with a dilute solution of an appropriate protease, and if desired a metal ion chelator. Preferably a solution consisting of 0.05 to 0.25% trypsin and 0.02% EDTA is used. To ensure that the cells are indeed endothelial cells, they are tested by immunofluorescence for Factor VIII antigen, a known endothelial cell marker.
Leukocyte adherence to endothelial cell monolayers may be determined as follows. Early passage endothelial cells, generally not beyond the fifth passage, are cultured on an appropriate substratum and in a suitable cell culture medium. The culture substratum is preferably pre-coated with an appropriate substance that enhances the adherence of the endothelial cells. Several such substances are known including fibronectin, poly-L-lysine, gelatin and laminin. Fibronectin is preferred. An appropriate culture substratum is a 96 well micro titer plate, and a suitable medium is Medium 199 containing fetal calf serum and other supplements known to be beneficial for the growth and maintenance of endothelial cells that are well known to those skilled in the art. Prior to adding a predetermined number of labelled leukocytes, the endothelial cell monolayer is washed with a physiologically balanced salt solution containing a reduced amount of fetal calf serum, preferably 1%. The preferred solution is RPMI supplemented with 1% fetal calf serum.
The endothelial cell monolayer containing added leukocytes is incubated for a time sufficient to permit maximum adherence of the leukocytes, and preferably this is conducted at 37° C. for 30 minutes in an appropriate cell culture atmosphere. Generally this would consist of growing and incubating the cells for the assay period in 5% CO2, 95% air, and 95% humidity. […]

IGWRNVTRLLVFATD [Peptide 4-15, NH2 --Ile--Gly--Trp--Arg--Asn--Val--Thr--Arg--Leu--Leu--Val--Phe--Ala--Thr--Asp--COOH]
concentration of peak inhibitory activity in the PMN adhesion assay: 10^4 to 10^-5 M | inhibitory activity in the PMN adhesion assay (in words): active | Percent Change of Adhesion (10^-5 M (first column (so in the source))): -53% | Percent Change of Adhesion, Average (10^-5 M, average of donors 140, 195, 363, 515, 140): -5 ± 3% | Percent Change of Adhesion (10^-5 M): 0% | Percent Change of Adhesion, Average (10^-6 M, average of donors 140, 195, 363, 515, 140): -6 ± 2% | Percent Change of Adhesion, Average (1000.0): -17 ± 2% | Percent Change of Adhesion, Average (100000.0): -58 ± 7%

RIARLEEKVKTLKAENSELASTANMLREEVAQLEQEVMNHA [Peptide 2X, NH2 --Arg--Ile--Ala--Arg--Leu--Glu--Glu--Lys--Val--Lys--Thr--Leu--Lys--Ala--Glu--Asn--Ser--Glu--Leu--Ala--Ser--Thr--Ala--Asn--Met--Leu--Arg--Glu--Glu--Val--Ala--Gln--Leu--Glu--Gln--Glu--Val--Met--Asn--His--Ala--COOH, reference compound]
concentration range over which the peptide had activity on PMN adhesion: 10^-4 to 10^-8 M | Average % Change of PMN Adhesion to TNF Activated ECs (10^-4 M): -38% | Average % Change of PMN Adhesion to TNF Activated ECs (10^-5 M): -1% | Average % Change of PMN Adhesion to TNF Activated ECs (10^-7 M): -23% | Average % Change of PMN Adhesion to TNF Activated ECs (10^-8 M): -20%

CRIARLEEKVKTLKAQNSELASTANMLREQVAQLKQKVMNHA [WT, NH2 --Cys--Arg--Ile--Ala--Arg--Leu--Glu--Glu--Lys--Val--Lys--Thr--Leu--Lys--Ala--Gln--Asn--Ser--Glu--Leu--Ala--Ser--Thr--Ala--Asn--Met--Leu--Arg--Glu--Gln--Val--Ala--Gln--Leu--Lys--Gln--Lys--Val--Met--Asn--His--Ala--COOH, reference compound]
activity on PMN adhesion at 10^-4 M (in words) (10^-4 M): inhibited polymorphonuclear leukocyte adhesion | Average % Change of PMN Adhesion to TNF Activated ECs (10^-4 M): -54% | Average % Change of PMN Adhesion to TNF Activated ECs (10^-5 M): 0% | Average % Change of PMN Adhesion to TNF Activated ECs (10^-6 M): +22% | Average % Change of PMN Adhesion to TNF Activated ECs (10^-7 M): +8% | Average % Change of PMN Adhesion to TNF Activated ECs (10^-8 M): -15%

DAPEGGLDAMMQVA [Peptide 5-14, NH2 --Asp--Ala--Pro--Glu--Gly--Gly--Leu--Asp--Ala--Met--Met--Gln--Val--Ala--COOH]
Average % Change of PMN Adhesion to TNF Activated ECs (10^-4 M): +9% | Average % Change of PMN Adhesion to TNF Activated ECs (10^-6 M): +7% | Average % Change of PMN Adhesion to TNF Activated ECs (10^-8 M): 0%

RIARLKEKVKTLKAKNSELASTANMLREQVAQLKQKVMNHA [JUN-k, NH2 --Arg--Ile--Ala--Arg--Leu--Lys--Glu--Lys--Val--Lys--Thr--Leu--Lys--Ala--Lys--Asn--Ser--Glu--Leu--Ala--Ser--Thr--Ala--Asn--Met--Leu--Arg--Glu--Gln--Val--Ala--Gln--Leu--Lys--Gln--Lys--Val--Met--Asn--His--Ala--COOH, reference compound]
activity on PMN adhesion at 10^-4 M (in words) (10^-4 M): inhibited polymorphonuclear leukocyte adhesion | Average % Change of PMN Adhesion to TNF Activated ECs (10^-4 M): -25% | Average % Change of PMN Adhesion to TNF Activated ECs (10^-5 M): -15% | Average % Change of PMN Adhesion to TNF Activated ECs (10^-6 M): +3% | Average % Change of PMN Adhesion to TNF Activated ECs (10^-7 M): -7%

SSNVVHLIKNAYNKLSS [Peptide 3-17, NH2 --Ser--Ser--Asn--Val--Val--His--Leu--Ile--Lys--Asn--Ala--Tyr--Asn--Lys--Leu--Ser--Ser--COOH]
Average % Change of PMN Adhesion to TNF Activated ECs (10^-4 M): -13% | Average % Change of PMN Adhesion to TNF Activated ECs (10^-5 M): +43% | Average % Change of PMN Adhesion to TNF Activated ECs (10^-6 M): +13% | Average % Change of PMN Adhesion to TNF Activated ECs (10^-7 M): -18% | Average % Change of PMN Adhesion to TNF Activated ECs (10^-8 M): -7%

KTVLPFVNTHPDKLRN [Peptide 6-16, NH2 --Lys--Thr--Val--Leu--Pro--Phe--Val--Asn--Thr--His--Pro--Asp--Lys--Leu--Arg--Asn--COOH]
Average % Change of PMN Adhesion to TNF Activated ECs (10^-4 M): +6% | Average % Change of PMN Adhesion to TNF Activated ECs (10^-6 M): -11% | Average % Change of PMN Adhesion to TNF Activated ECs (10^-8 M): -25%

SYSMLDDLRNVKKLG [Peptide 1-15, NH2 --Ser--Tyr--Ser--Met--Leu--Asp--Asp--Leu--Arg--Asn--Val--Lys--Lys--Leu--Gly--COOH]
Average % Change of PMN Adhesion to TNF Activated ECs (10^-4 M): -24% | Average % Change of PMN Adhesion to TNF Activated ECs (10^-6 M): -9% | Average % Change of PMN Adhesion to TNF Activated ECs (10^-8 M): -4%

AHKLAENNIQPIFAVT [Peptide 2-16, NH2 --Ala--His--Lys--Leu--Ala--Glu--Asn--Asn--Ile--Gln--Pro--Ile--Phe--Ala--Val--Thr--COOH]
Average % Change of PMN Adhesion to TNF Activated ECs (10^-4 M): -7% | Average % Change of PMN Adhesion to TNF Activated ECs (10^-6 M): -1% | Average % Change of PMN Adhesion to TNF Activated ECs (10^-8 M): -2%

DGFHFAGDGKLGAI [Peptide 4-14, NH2 --Asp--Gly--Phe--His--Phe--Ala--Gly--Asp--Gly--Lys--Leu--Gly--Ala--Ile--COOH]
inhibitory activity in the PMN adhesion assay (in words): little activity | Average % Change of PMN Adhesion to TNF Activated ECs (10^-4 M): -9% | Average % Change of PMN Adhesion to TNF Activated ECs (10^-5 M): +28% | Average % Change of PMN Adhesion to TNF Activated ECs (10^-6 M): -4% | Average % Change of PMN Adhesion to TNF Activated ECs (10^-7 M): +12% | Average % Change of PMN Adhesion to TNF Activated ECs (10^-8 M): -6%
